Results: patent publication US10828344B2, “Antimicrobial yeast preparation and methods for preparation and use thereof” (priority 2016, dated 2020)
Marks after values point to notes of the source that are not given here.

Columns and labels:
[1] = test system: Escherichia coli 0157:H7 ATCC 700728; test: Minimal Inhibitory Concentration test (OD) with bactericidal/static check; type: cell-based; conditions: for Bactericidal or Static check of optically clear MIC tubes, Escherichia coli 0157:H7 ATCC 700728: 0 CFU/ml needed for bactericidal
Procedure: (§1) Sterile, 12×75 mm plastic test tubes were used to perform the test. 1 mL of the test compositions were placed in the appropriate labeled tubes. 1 mL of each adjusted bacterial inoculum was added to each appropriate labeled tube in the dilution series and mixed. The tubes were closed with loose caps. The tubes were then incubated at 37° C. for 24 hours with the exception of the Campylobacter tubes, which were incubated microaerophilically at 42° C. for 48 hours. At the end of the incubation phases the tubes were examined for turbidity. All optically clear tubes were plated to agar plates to determine if the test article was bactericidal or bacteriostatic. A product was considered to be “bactericidal” if less than 3 CFU were detected (Clear tubes with a few CFU), and “bacteriostatic” if greater the 3 CFU were detected (Clear tubes and growth detected).
(§2) The tubes were examined for turbidity, indicating growth of the organism. […] The lowest concentration of the agent that inhibits growth of the organism, as detected by lack of visual turbidity (matching the negative control) was designated the minimum inhibitory concentration (MIC).
(§3) Additional experiments were performed to determine bactericidal and bacteriostatic effects of preparation made from wine lees from different varietals, effects of aging of preparations on bactericidal and bacteriostatic effectiveness, and to compare effectiveness to conventional antibiotic treatment. Methods were as described above for testing bacteriostatic and bactericidal effects. Preparations were tested against Salmonella enterica (ATCC 8759) and E. coli 0157:H7 (ATCC 700728).
(§4) The following preparations were tested: a lees preparation from Chardonnay grapes that had not been enzymatically treated and had been prepared approximately 2 months before testing (CH16), a lees preparation from Pinot Noir grapes that had not been enzymatically treated and had been prepared approximately 14 months before testing (PNC15), a lees preparation from Pinot Noir grapes that had not been enzymatically treated and had been prepared approximately 2 months before testing (PNC16), a lees preparation from Cabernet Franc grapes that had been enzymatically treated and had been prepared approximately 2 months before testing (CFE16), CELMANAX™ (SCP) (hydrolyzed yeast), and salinomycin, 0.005% solution (antibiotic).

[2] = test system: Salmonella enterica ATCC 8759; test: as above; type: cell-based; conditions: 0 CFU/ml needed for bactericidal
Procedure: as §1, §2, §3, §4

Cryptosporidium oocytes = test: In vivo calf study: fecal shedding of Cryptosporidium oocytes; set-up: species or system Cryptosporidium (in Holstein calves)
Procedure: (§5) An in vivo study was performed to compare effects of lees-based preparations as disclosed herein to conventional commercially available product yeast fermentation product and Decoquinate on performance and health of neonatal Holstein calves. […] PNC16 was compared with CELMANAX™ (SCP) (hydrolyzed yeast) and an antibiotic, DECCOX®-M manufactured by Zoetis Inc., Decoquinate.
(§6) The study was conducted at Spruce Haven Farms, Union Springs, N.Y., a commercial dairy consisting of 1,800 mature cows. There were thirty calf hutches available to conduct the trial that were aligned in one row. The study consisted of thirty female Holstein calves. As calves were born they were successively placed on one of four treatments until 28 calves were assigned, then the remaining 2 calves were assigned to treatment 2 and 3 respectively.
(§7) Fecal samples (˜10-20 g) were obtain via digital stimulation from each calf on day 7, 14 and 21 of life. Samples were sent to the Cornell Diagnostic Laboratory for zinc sulfate floatation to determine type and degree of fecal shedding. Body temperatures were take just prior to fecal collections on day 7, 14 and 21 of life. Fecal consistency scores: were recorded for each calf daily using the following scale: 1=soft, solid consistency, no fluid, 2=semi-solid, mostly solid, 3=runny: semi solid, mostly fluid, 4=watery, all fluid 5=watery with blood.

[3] = In vivo calf study: rectal temperature and fecal consistency score; set-up: species or system Holstein calves
Procedure: as §5, §6, §7

[4] = In vivo calf study: hematology and haptoglobin; set-up: species or system Holstein calves; conditions: 10 day old calves
Procedure: An in vivo study was performed to compare effects of lees-based preparations as disclosed herein to conventional commercially available product yeast fermentation product and Decoquinate on performance and health of neonatal Holstein calves. Lees was prepared as described above (a lees preparation from Pinot Noir grapes that had not been enzymatically treated and had been prepared approximately 6 months before testing (PNC16)). PNC16 was compared with […]) (hydrolyzed yeast) and an antibiotic, DECCOX®-M manufactured by Zoetis Inc., Decoquinate. The study was conducted at Spruce Haven Farms, Union Springs, N.Y., a commercial dairy consisting of 1,800 mature cows. There were thirty calf hutches available to conduct the trial that were aligned in one row. The study consisted of thirty female Holstein calves. As calves were born they were successively placed on one of four treatments until 28 calves were assigned, then the remaining 2 calves were assigned to treatment 2 and 3 respectively. […] Blood samples were collected via jugular vein-puncture before the pm milk feeding on day 10 of life. Samples were collected in heparinized vacutainers. Whole blood was analyzed for hematology: red blood count, hematocrit, hemoglobin, mean cell volume, mean cell hemoglobin, mean cell hemoglobin concentration, red cell distribution width, reticulocyte, white blood cell: neutrophil, lymphocyte, monocyte, eosinophil, basophil, platelet, mean platelet volume, platelet, distribution width and procalcitonin. Plasma was obtained by centrifugation at 1,500×g for 15 min. Plasma samples were frozen (-40° C.) and shipped to the Michigan State University (DCPAH) laboratory for haptoglobin analysis.

Eimeria species = test: In vivo calf study: fecal shedding of Eimeria species; set-up: species or system Eimeria (in Holstein calves); conditions: day 21 of age (FIG. 4); Control 71.5%
Procedure: as §5, §6, §7

[5] = In vivo calf study: body weight gain; set-up: species or system Holstein calves
Procedure: An in vivo study was performed to compare effects of lees-based preparations as disclosed herein to conventional commercially available product yeast fermentation product and Decoquinate on performance and health of neonatal Holstein calves. Lees was prepared as described above (a lees preparation from Pinot Noir grapes that had not been enzymatically treated and had been prepared approximately 6 months before testing (PNC16)). PNC16 was compared with […]) (hydrolyzed yeast) and an antibiotic, DECCOX®-M manufactured by Zoetis Inc., Decoquinate. The study was conducted at Spruce Haven Farms, Union Springs, N.Y., a commercial dairy consisting of 1,800 mature cows. There were thirty calf hutches available to conduct the trial that were aligned in one row. The study consisted of thirty female Holstein calves. As calves were born they were successively placed on one of four treatments until 28 calves were assigned, then the remaining 2 calves were assigned to treatment 2 and 3 respectively. […] Calves were housed in fiberglass hutches (4'×8') with an outside run (4'×6') with straw bedding inside the hutch. Within 2 hr. of birth, calves were offered 4 lb. of colostrum. Thereafter, pasteurized whole milk was offered twice daily (08:00 and 16:00 h) and water and dry calf starter was available at all times in removable buckets. During the morning feeding the liquid (CEL or PNC16) or dry (22.7 mg) test articles were dissolved in the milk. Calves body weights were recorded when moved into the hutches and again at 21 d of life.

cryptosporidiosis = conditions: Moore (2003); cited from earlier work
[6] = 20 Mg/ml (ABX: salinomycin 0.005% solution)
[7] = 40 Mg/ml (ABX: salinomycin 0.005% solution)

SMILES: CC[C@@H](C(=O)[C@@H](C)[C@@H](O)[C@H](C)[C@@H]1O[C@@H]([C@@H](CC)C(=O)O)CC[C@@H]1C)[C@H]1O[C@]2(C=C[C@@H](O)[C@]3(CC[C@@](C)([C@H]4CC[C@](O)(CC)[C@H](C)O4)O3)O2)[C@H](C)C[C@@H]1C [ABX, salinomycin]
- Turbidity Reading (OD), Escherichia coli 0157:H7 ATCC 700728 [1]: .075^c OD
- Bactericidal or Static check of optically clear MIC tubes, Escherichia coli 0157:H7 ATCC 700728 [1, 6]: 950 CFU/ml
- Bactericidal or Static check of optically clear MIC tubes, Escherichia coli 0157:H7 ATCC 700728 [1, 7]: 950 CFU/ml
- Bactericidal or Static check of optically clear MIC tubes, Salmonella enterica ATCC 8759 [2, 6]: 50,000 CFU/ml
- Bactericidal or Static check of optically clear MIC tubes, Salmonella enterica ATCC 8759 [2, 7]: 50,000 CFU/ml

SMILES: CCCCCCCCCCOc1cc2c(O)c(C(=O)OCC)cnc2cc1OCC [DECCOX ®, Decoquinate]
- Cryptosporidium Oocytes/g of feces (Cryptosporidium oocytes; Day 1, Control 0): 0 Oocytes/g of feces
- % of calves shedding Cryptosporidium oocytes (Cryptosporidium oocytes; Day 1, Control 0.0): 0.0%
- % of calves shedding Cryptosporidium oocytes (Cryptosporidium oocytes; Day 7, Control 71.4): 28.6%
- Cryptosporidium Oocytes/g of feces (Cryptosporidium oocytes; Day 7, Control 85638): 2^b Oocytes/g of feces
- % of calves shedding Cryptosporidium oocytes (Cryptosporidium oocytes; Day 14, Control 85.0): 100.0%
- Cryptosporidium Oocytes/g of feces (Cryptosporidium oocytes; Day 14, Control 14153): 209473^a Oocytes/g of feces
- % of calves shedding Cryptosporidium oocytes (Cryptosporidium oocytes; Day 21, Control 28.6): 28.6%
- Cryptosporidium Oocytes/g of feces (Cryptosporidium oocytes; Day 21, Control 368): 11^b Oocytes/g of feces
- Fecal consistency score (FCS) ([3]; between day 12 and 17 d of life, scale 1-5, Control 2.3): 2.4
- Rectal temperature ([3]; day 14, comparison in words): higher (p<005) than PNC16
- Basophil (Baso) ([4]; Control 0.01): 0.00 K/ul
- Monocyte (Mono) ([4]; Control 0.02): 0.05 K/ul
- Eosinophil (Eosin) ([4]; Control 0.03): 0.08 K/ul
- Neutrophil (NEUT) ([4]; Control 3.7): 5.1 K/ul
- Lymphocyte (LYMPH) ([4]; Control 4.2): 2.4 K/ul
- Mean Platelet Volume (MPV) ([4]; Control 5.5): 5.6 fL
- Platelet Distribution Width (PDW) ([4]; Control 6.34): 7.72^a fL
- Reticulocyte (Ret) ([4]; Control 7.13): 1.49^b K/ul
- Red Blood Count (RBC) ([4]; Control 7.4): 7.1 M/uL
- White Blood Cell (WBC) ([4]; Control 7.96): 7.67^b K/ul
- Hemoglobin (HBG) ([4]; Control 9.4): 8.9 g/dL
- Mean Cell Hemoglobin (MCH) ([4]; Control 12.6): 12.4 pg
- Hematocrit (HCT) ([4]; Control 29.8): 28.5%
- Red Cell Distribution Width (RDW) ([4]; Control 31.4): 30.7%
- Mean Cell Hemoglobin Concentration (MCHC) ([4]; Control 31.5): 31.4 g/dL
- Mean Cell Volume (MCV) ([4]; Control 40.0): 39.8 fL
- Platelet (Plt) ([4]; Control 654.7): 579.8^b K/ul
- Neutrophil/Lymphocyte Ratio (NLR) ([4]; Control .87): 2.11^a
- Percentages Baso ([4]; percent of white cells, Control 0.19): 0.00%
- Percentages Mono ([4]; percent of white cells, Control 0.21): 0.63%
- Percentages Eosin ([4]; percent of white cells, Control 0.34): 0.98%
- Percentages Neutrophil ([4]; percent of white cells, Control 48.38): 66.63^a %
- Percentages Lymphocyte ([4]; percent of white cells, Control 50.87): 31.75^b %
- Haptoglobin (Hp) ([4]; plasma, Control 24.13): 64.5 µg/mL
- Percent of calves shedding Eimeria (Eimeria species): 0%
- Birth wt ([5]; baseline at birth, Control 40.4): 40.2 kg
- Body wt gain ([5]; birth through day 21, Control 6.8): 7.3 kg
- ADG ([5]; birth through day 21, Control .32): .35 kg/day
- Day 21 wt ([5]; day 21 of life, Control 47.1): 47.6^b kg
- clinical benefit as preventative treatment for cryptosporidiosis (cryptosporidiosis): no clinical benefit
